The record followed here is ChEMBL document CHEMBL2040796, “Synthesis and biological activity of both enantiomers of kujigamberol isolated from 85-million-years-old Kuji amber” (Bioorg Med Chem Lett, 2012).

Calls of active or inactive are those of the source. No cut-off for these calls is given here.

For one assay, the system named is Saccharomyces cerevisiae. As to the kind of experiment: Antimicrobial activity against Saccharomyces cerevisiae harboring zds1delta, erg3delta pdr1delta pdr3delta mutant assessed as clear growth restored zone at 0.5 to 0.0156 ug/spot. The class given is functional, organism-based.
The next assay deals with HL-60. As to the kind of experiment: Cytotoxicity against human HL60 cells. In kind it is functional, cell-based.

On to `Cc1ccc2c(c1CCC(C)C)CCC[C@@]2(C)CO`, for which the result in the assay with Saccharomyces cerevisiae and in the assay with HL-60 was Active.

For `COC(=O)C1(C)CCCc2ccccc21` (configuration not stated), the outcome in the assay on Saccharomyces cerevisiae and with HL-60 was inactive.

Take `OCC1CCCc2ccccc21` (configuration not stated): the outcome in the assay on Saccharomyces cerevisiae and in the assay on HL-60 was inactive.

What is called IC50 is the midpoint of a concentration-inhibition curve. For `Cc1ccc2c(c1CCC(C)C)CCC[C@]2(C)CO` [KUJIGAMBEROL], in the assay on Saccharomyces cerevisiae, the outcome was Active. Moreover, the IC50 in the assay on HL-60 was 24 µM.

Consider `CC1(CO)CCCc2ccccc21` (configuration not stated), for which the result in the assay on Saccharomyces cerevisiae and in the assay with HL-60 was inactive.

Turning to `Cc1ccc2c(c1CCC(C)C)CCCC2CO` (configuration not stated), the outcome with Saccharomyces cerevisiae and in the assay on HL-60 was Active.
